In patent publication US7888000B2, “Method for identifying salt-sensitive persons” (Morehouse School of Medicine, priority 2002, dated 2011):

Experiments:
[1] = rat, in vivo
[2] = test system: Dahl salt-sensitive (S) rats; details: exogenous 25-OHD; S rats fed a high salt diet; cited from earlier work

increase of plasma 25-OHD [1]: successful in S rats fed low
SMILES: C=C1CC[C@H](O)C/C1=C/C=C1\CCC[C@]2(C)[C@@H]([C@H](C)CCCC(C)(C)O)CC[C@@H]12 [25-OHD, 25-hydroxycholecalciferol]
attenuation of the blood pressure increase [2]: will not attenuate the blood pressure increase
